# Data taken from US9296684B2, “Allyl 2-cyanoacrylate prepolymer, preparation method thereof, and bioadhesive composition comprising the prepolymer” (UNIVERSITY-INDUSTRY COOPERATION GROUP OF KYUNG HEE …, priority 2011, dated 2016).
# Test: Change of viscosity according to time for heating 2-cyanoacrylate prepolymer
# Type: physicochemical
# Conditions: heated at 150° C., FIG. 1
# Description: 10 ml of an allyl 2-cyanoacrylate was added to a glass test tube and then sealed in a vacuum state. The sealed glass test tube was put in an oil bath of 150° C. to heat it for 5, 10, 20, 30, 40, 50, 60, and 70 minutes. The heated cyanoacrylate per each given period of time was cooled at room temperature and then the change in viscosity was observed.
# An ethyl 2-cyanoacrylate was heated; then the heated cyanoacrylate per each given period of time was cooled at room temperature, and then the change in viscosity was observed, by using an identical method as in Example 1 described above, with the exception that ethyl 2-cyanoacrylate was used instead of allyl 2-cyanoacrylate.
# The results of investigating the change in viscosity according to time of heating the 2-cyanoacrylate prepolymer in Example 1 and Comparative Example 1 are shown in FIG. 1. Furthermore, the values of viscosity according to time of heating the 2-cyanoacrylate prepolymer in Example 1 are shown in the following Table 1.
compound,measurement,value
C=C(C#N)C(=O)OCC [ethyl 2-cyanoacrylate],change in viscosity with greater heating time,no increase in the viscosity
